From US10239849B2 (Merck Sharp & Dohme Corp., priority 2015, dated 2019)

Experiments:
[1] = target: T1, glutathione-S-transferase (GST) tagged LXRbeta LBD (ligand binding domain) (Homo sapiens, UniProt P55055); experiment: LanthaScreen TR-FRET Liver X Receptor Coactivator Assay, LXR beta-LBD; format: biochemical; settings: for Emax: efficacy in relation to reference dual agonist T1317, read-out: LXR beta activity at max dose (%) (Emax); for EC50: potency (Inflection Point) of co-activator recruitment, TR-FRET, read-out: LXR beta IP
T1 construct: purchased Invitrogen pv4658.pps
T1 sequence (P55055 222-460 limits assumed): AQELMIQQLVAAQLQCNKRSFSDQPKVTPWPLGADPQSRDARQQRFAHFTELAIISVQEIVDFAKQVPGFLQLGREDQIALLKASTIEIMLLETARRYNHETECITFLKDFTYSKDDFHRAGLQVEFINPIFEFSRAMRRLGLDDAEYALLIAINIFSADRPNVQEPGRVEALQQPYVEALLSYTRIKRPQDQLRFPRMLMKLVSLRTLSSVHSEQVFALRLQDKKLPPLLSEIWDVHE
Outline: (§1)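 LXR alpha- or beta-LBD added to test compounds, then fluorescein-labelled coactivator peptide plus terbium anti-GST antibody. After incubation at room temperature, TR-FRET read on a filter-based plate reader.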

[2] = target: T2, glutathione-S-transferase (GST) tagged LXRalpha LBD (ligand binding domain) (Homo sapiens, UniProt Q13133); experiment: LanthaScreen TR-FRET Liver X Receptor Coactivator Assay, LXR alpha-LBD; format: biochemical; settings: for Emax: efficacy in relation to reference dual agonist T1317, read-out: LXR alpha activity at max dose (%) (Emax); for EC50 / LXR alpha IP (nM): potency (Inflection Point) of co-activator recruitment, TR-FRET; for EC50: read-out: LXR alpha IP
T2 construct: purchased Invitrogen pv4655
T2 sequence (Q13133 209-447 limits assumed): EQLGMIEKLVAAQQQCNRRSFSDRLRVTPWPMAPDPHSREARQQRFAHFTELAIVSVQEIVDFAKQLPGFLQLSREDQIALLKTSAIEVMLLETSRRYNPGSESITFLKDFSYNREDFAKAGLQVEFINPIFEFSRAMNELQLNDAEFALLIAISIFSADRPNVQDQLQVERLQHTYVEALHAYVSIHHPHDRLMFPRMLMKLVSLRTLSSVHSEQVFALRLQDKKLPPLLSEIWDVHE
Outline: as §1

Row | Emax [1] | EC50 [1] | Emax [2] | EC50 [2] | LXR alpha IP (nM) [2] | Structure (SMILES)
1 | 91% | 170 nM | 58% | 14.9 µM |  | CN(CC#N)C(=O)c1ccc(-c2cnc(N3CCN(C(=O)OC(C)(C)C)CC3)c(C#N)c2)cc1Cl [Example 5-8, tert-butyl 4-(5-{3-chloro-4-[(cyanomethyl) (methyl)carbamoyl]phenyl}-3-cyanopyridin-2-yl)piperazine-1-carboxylate]
2 | 71% | 274 nM | 48% | 14.3 µM |  | CC(C)(C)OC(=O)N1CCN(c2ncc(-c3ccc(C(=O)N4CCCC4)c(Cl)c3)cc2C#N)CC1 [Example 5-9, tert-butyl 4-{5-[3-chloro-4-(pyrrolidin-1-ylcarbonyl)phenyl]-3-cyanopyridin-2-yl}piperazine-1-carboxylate]
3 | 63% | 1090 nM | 37% | 2.71 µM |  | CC(C)(C)OC(=O)N1CCN(c2ncc(-c3ccc(C(=O)NCCCO)c(Cl)c3)cc2C#N)CC1 [Example 5-10, tert-butyl 4-(5-{3-chloro-4-[(3-hydroxypropyl)carbamoyl]phenyl}-3-cyanopyridin-2-yl)piperazine-1-carboxylate]
4 | 59% | 300 nM | 89% | 11.7 µM |  | CC(C)(C)OC(=O)N1CCN(c2ncc(-c3ccc(C(=O)N4CCCCC4)c(Cl)c3)cc2C#N)CC1 [Example 5-11, tert-butyl 4-{5-[3-chloro-4-(piperidin-1-ylcarbonyl)phenyl]-3-cyanopyridin-2-yl}piperazine-1-carboxylate]
5 | 60% | 481 nM | 37% | 8.44 µM |  | CC(C)(C)OC(=O)N1CCN(c2ncc(-c3ccc(C(=O)N4CC[C@@H](O)C4)c(Cl)c3)cc2C#N)CC1 [Example 5-12, tert-butyl 4-[5-(3-chloro-4-{[(3R)-3-hydroxypyrrolidin-1-yl]carbonyl}phenyl)-3-cyanopyridin-2-yl]piperazine-1-carboxylate]
6 | 62% | 262 nM | 44% | 6.9 µM |  | CC(C)(C)OC(=O)N1CCN(c2ncc(-c3ccc(C(=O)N4CC[C@H](O)C4)c(Cl)c3)cc2C#N)CC1 [Example 5-13, tert-butyl 4-[5-(3-chloro-4-{[(3S)-3-hydroxypyrrolidin-1-yl]carbonyl}phenyl)-3-cyanopyridin-2-yl]piperazine-1-carboxylate]
7 | 63% | 332 nM | 38% | 12.6 µM |  | CC(C)(C)OC(=O)N1CCN(c2ncc(-c3ccc(C(=O)N4CCOCC4)c(Cl)c3)cc2C#N)CC1 [Example 5-14, tert-butyl 4-{5-[3-chloro-4-(morpholin-4-ylcarbonyl)phenyl]-3-cyanopyridin-2-yl}piperazine-1-carboxylate]
8 | 70% | 261 nM | 42% | 6.87 µM |  | CN(CCCO)C(=O)c1ccc(-c2cnc(N3CCN(C(=O)OC(C)(C)C)CC3)c(C#N)c2)cc1Cl [Example 5-15, tert-butyl 4-(5-{3-chloro-4-[(3-hydroxypropyl) (methyl)carbamoyl]phenyl}-3-cyanopyridin-2-yl)piperazine-1-carboxylate]
9 | 91% | 43 nM | 68% | 1.46 µM |  | CC(C)(C)OC(=O)N1CCN(c2ncc(-c3ccc(C(=O)NCc4ncc[nH]4)c(Cl)c3)cc2C#N)CC1 [Example 5-16, tert-butyl 4-(5-{3-chloro-4-[(1H-imidazol-2-ylmethyl)carbamoyl]phenyl}-3-cyanopyridin-2-yl)piperazine-1-carboxylate]
10 | 47% | 415 nM | 17% |  | No IP | CC(C)(C)OC(=O)N1CCN(c2ncc(-c3ccc(C(=O)N4CCC(O)CC4)c(Cl)c3)cc2C#N)CC1 [Example 5-17, tert-butyl 4-(5-{3-chloro-4-[(4-hydroxypiperidin-1-yl)carbonyl]phenyl}-3-cyanopyridin-2-yl)piperazine-1-carboxylate]
11 | 70% | 301 nM | 40% | 8.6 µM |  | CN(CC(O)CO)C(=O)c1ccc(-c2cnc(N3CCN(C(=O)OC(C)(C)C)CC3)c(C#N)c2)cc1Cl (stereo not shown) [Example 5-18, tert-butyl 4-(5-{3-chloro-4-[(2,3-dihydroxypropyl) (methyl)carbamoyl]phenyl}-3-cyanopyridin-2-yl)piperazine-1-carboxylate]
12 | 93% | 102 nM | 68% | 2.98 µM |  | CC(C)(C)OC(=O)N1CCN(c2ncc(-c3ccc(C(=O)N(CCO)CCO)c(Cl)c3)cc2C#N)CC1 [Example 5-19, tert-butyl 4-(5-{4-[bis(2-hydroxyethyl)carbamoyl]-3-chlorophenyl}-3-cyanopyridin-2-yl)piperazine-1-carboxylate]
13 | 55% | 565 nM | 31% | 4.07 µM |  | CC(C)(C)OC(=O)N1CCN(c2ncc(-c3ccc(C(=O)N(CCCO)C4CC4)c(Cl)c3)cc2C#N)CC1 [Example 5-20, tert-butyl 4-(5-{3-chloro-4-[cyclopropyl(3-hydroxypropyl)carbamoyl]phenyl}-3-cyanopyridin-2-yl)piperazine-1-carboxylate]
14 | 81% | 931 nM | 37% | 9.24 µM |  | CN(CCn1ccnc1)C(=O)c1ccc(-c2cnc(N3CCN(C(=O)OC(C)(C)C)CC3)c(C#N)c2)cc1Cl [Example 5-21, tert-butyl 4-[5-(3-chloro-4-{[2-(1H-imidazol-1-yl)ethyl](methyl)carbamoyl}phenyl)-3-cyanopyridin-2-yl]piperazine-1-carboxylate]
15 | 65% | 382 nM | 34% | 9.7 µM |  | CN(Cc1cnn(C)c1)C(=O)c1ccc(-c2cnc(N3CCN(C(=O)OC(C)(C)C)CC3)c(C#N)c2)cc1Cl [Example 5-22, tert-butyl 4-[5-(3-chloro-4-{methyl[(1-methyl-1H-pyrazol-4-yl)methyl]carbamoyl}phenyl)-3-cyanopyridin-2-yl]piperazine-1-carboxylate]
16 | 74% | 282 nM | 46% | 19.3 µM |  | CN(CCn1cccn1)C(=O)c1ccc(-c2cnc(N3CCN(C(=O)OC(C)(C)C)CC3)c(C#N)c2)cc1Cl [Example 5-23, tert-butyl 4-[5-(3-chloro-4-{methyl[2-(1H-pyrazol-1-yl)ethyl]carbamoyl}phenyl)-3-cyanopyridin-2-yl]piperazine-1-carboxylate]
17 | 71% | 118 nM | 52% | 8.46 µM |  | CN(CCn1cncn1)C(=O)c1ccc(-c2cnc(N3CCN(C(=O)OC(C)(C)C)CC3)c(C#N)c2)cc1Cl [Example 5-24, tert-butyl 4-[5-(3-chloro-4-{methyl[2-(1H-1,2,4-triazol-1-yl)ethyl]carbamoyl}phenyl)-3-cyanopyridin-2-yl]piperazine-1-carboxylate]
18 | 56% | 741 nM | 36% | 7.89 µM |  | CC(O)CN(CC(C)O)C(=O)c1ccc(-c2cnc(N3CCN(C(=O)OC(C)(C)C)CC3)c(C#N)c2)cc1Cl (stereo not shown) [Example 5-25, tert-butyl 4-(5-{4-[bis(2-hydroxypropyl)carbamoyl]-3-chlorophenyl}-3-cyanopyridin-2-yl)piperazine-1-carboxylate]
19 | 74% | 4270 nM | 48% | 25.9 µM |  | CN(CCc1ccccc1)C(=O)c1ccc(-c2cnc(N3CCN(C(=O)OC(C)(C)C)CC3)c(C#N)c2)cc1Cl [Example 5-26, tert-butyl 4-(5-{3-chloro-4-[methyl(2-phenylethyl)carbamoyl]phenyl}-3-cyanopyridin-2-yl)piperazine-1-carboxylate]
20 | 76% | 705 nM | 17% |  | No IP | CN(CCc1ccncc1)C(=O)c1ccc(-c2cnc(N3CCN(C(=O)OC(C)(C)C)CC3)c(C#N)c2)cc1Cl [Example 5-27, tert-butyl 4-(5-{3-chloro-4-[methyl(2-pyridin-4-ylethyl)carbamoyl]phenyl}-3-cyanopyridin-2-yl)piperazine-1-carboxylate]
21 | 84% | 164 nM | 71% | 3.71 µM |  | Cc1nc(CCN(C)C(=O)c2ccc(-c3cnc(N4CCN(C(=O)OC(C)(C)C)CC4)c(C#N)c3)cc2Cl)no1 [Example 5-28, tert-butyl 4-[5-(3-chloro-4-{methyl[2-(5-methyl-1,2,4-oxadiazol-3-yl)ethyl]carbamoyl}phenyl)-3-cyanopyridin-2-yl]piperazine-1-carboxylate]
22 | 75% | 1170 nM | 30% | 6.58 µM |  | CN(CC(O)c1ccccc1)C(=O)c1ccc(-c2cnc(N3CCN(C(=O)OC(C)(C)C)CC3)c(C#N)c2)cc1Cl (stereo not shown) [Example 5-29, tert-butyl 4-(5-{3-chloro-4-[(2-hydroxy-2-phenylethyl)(methyl)carbamoyl]phenyl}-3-cyanopyridin-2-yl)piperazine-1-carboxylate]
